Among the data in patent publication US9593108B2, “Compounds and methods for antiviral treatment” (PTC Therapeutics, Inc., priority 2009, dated 2017) are melting point and IC50 values, retold here.

A value given as a limit tells only on which side of the number the result lay.

For orientation: melting point means the temperature of the solid-liquid transition. One may read the IC50 as the midpoint of a concentration-inhibition curve. Read a low IC50 as greater potency in that assay.

Data set [1] concerns HCV replicon RNA (GenBank Accession No. AJ242654). The experiment in a line: HCV Replicon Assay (replicon RNA reduction and/or Fluc reporter signal). Format: cell-based, Hepatitis C virus. The settings on record: replicon-containing cells cultured with test compound for up to 3 days. An excerpt: The lack of reliable and readily accessible cell-culture and small animal models permissive for HCV replication has limited the development of new anti-HCV agents. Self-replicating subgenomic HCV systems, termed HCV replicons, have been described and have been widely used to assess the efficacy of anti-HCV inhibitors (see Blight K J, et al., 2000, Efficient initiation of HCV RNA replication in cell culture. Science 290:1972-1974; Blight K J, et al., 2002, Highly permissive cell lines for subgenomic and genomic hepatitis C virus RNA replication. J Virol 76:13001-13014; Ikeda M, et al., 2002. Selectable subgenomic and genome-length dicistronic RNAs derived from an infectious molecular clone of the HCV-N strain of hepatitis C virus replicate efficiently in cultured Huh7 cells. J Virol 76:2997-3006; Lohmann V, et al., 1999, Replication of subgenomic hepatitis C virus RNAs in a hepatoma cell line. Science 285:110-113; Pietschmann T, et al., 2002, Persistent and transient replication of full-length hepatitis C virus genomes in cell culture. J Virol 76:4008-4021; and, Pietschmann T, et al., 2001, Characterization of cell lines carrying self-replicating hepatitis C virus RNAs. J Virol 75:1252-1264).
As described in U.S. Pat. No. 6,630,343, HCV inhibitors are analyzed in the bicistronic replicon by quantitating replicon RNA (GenBank Accession No. AJ242654) reduction and/or the Fluc reporter signal. Replicon-containing cells may be cultured with a test compound of the present invention for up to 3 days. Interferon (IFN) is used as a positive control. In general, the replicon IC50 values shown in Table 1 represent IC50 values determined by replicon RNA reduction.

Take `Cc1cnc2c(c1)c(C#N)c(-c1ccc(S(=O)(=O)N[C@@H](C)C(F)(F)F)cn1)n2-c1ccc(F)cc1` [Cpd 503, 6-[3-cyano-1-(4-fluorophenyl)-5-methyl-1H-pyrrolo[2,3-b]pyridin-2-yl]-N-[(2S)-1,1,1-trifluoropropan-2-yl]pyridine-3-sulfonamide]: the melting point is 253 to 254 °C. The IC50 in data set [1] (Hepatitis C virus, 72 h) is less than 500 nM.

With `CCc1cnc2c(c1)c(C(N)=O)c(-c1ccc(S(=O)(=O)NC3(C(F)(F)F)CC3)cc1)n2C1CCC1` [Cpd 379, 1-cyclobutyl-5-ethyl-2-(4-{[1-(trifluoromethyl)cyclopropyl]sulfamoyl}phenyl)-1H-pyrrolo[2,3-b]pyridine-3-carboxamide], the melting point was 173 to 179 °C. This molecule also showed a concentration for half-maximal inhibition (IC50) in data set [1] (Hepatitis C virus, 72 h) of less than 500 nM.

With `NC(=O)c1c(-c2ccc(S(=O)(=O)NC3(C(F)(F)F)CC3)cc2)n(C2CCC2)c2ncc(Cl)cc12` [Cpd 328, 5-chloro-1-cyclobutyl-2-(4-{[1-(trifluoromethyl)cyclopropyl]sulfamoyl}phenyl)-1H-pyrrolo[2,3-b]pyridine-3-carboxamide], the melting point was 271 to 272 °C. In data set [1] (Hepatitis C virus, 72 h), the IC50 was less than 500 nM.

In turn, `CC(C)(C)NS(=O)(=O)c1ccc(-c2c(C#N)c3cc(C4CC4)cnc3n2C2CCC2)nc1` [Cpd 126, N-tert-butyl-6-(3-cyano-1-cyclobutyl-5-cyclopropyl-1H-pyrrolo[2,3-b]pyridin-2-yl)pyridine-3-sulfonamide] yielded an IC50 in data set [1] (Hepatitis C virus, 72 h) of less than 500 nM.

In data set [1] (Hepatitis C virus, 72 h), `CCc1cnc2c(c1)c(C#N)c(-c1ncc(S(=O)(=O)N[C@H](C)C(F)(F)F)cn1)n2C1CCC1` [Cpd 160, 2-(3-cyano-1-cyclobutyl-5-ethyl-1H-pyrrolo[2,3-b]pyridin-2-yl)-N-[(2R)-1,1,1-trifluoropropan-2-yl]pyrimidine-5-sulfonamide] had an IC50 of less than 500 nM.

`COc1ccc2c(C#N)c(-c3ccc(S(=O)(=O)NC(CF)CF)cc3)n(C3CCC3)c2n1` [Cpd 43, 4-(3-cyano-1-cyclobutyl-6-methoxy-1H-pyrrolo[2,3-b]pyridin-2-yl)-N-(1,3-difluoropropan-2-yl)benzenesulfonamide]: the IC50 in data set [1] (Hepatitis C virus, 72 h) was less than 500 nM.

As for `C[C@H](NS(=O)(=O)c1cnc(-c2c(C#N)c3ccc(C4CC4)nc3n2C2CCC2)nc1)C(F)(F)F` [Cpd 153, 2-(3-cyano-1-cyclobutyl-6-cyclopropyl-1H-pyrrolo[2,3-b]pyridin-2-yl)-N-[(2S)-1,1,1-trifluoropropan-2-yl]pyrimidine-5-sulfonamide], the concentration for half-maximal inhibition (IC50) in data set [1] (Hepatitis C virus, 72 h) is less than 500 nM.

In the case of `COc1cnc2c(c1)c(C#N)c(-c1ccc(S(=O)(=O)NC3(C)CC3)cn1)n2C1CCCC1` [Cpd 269, 6-(3-cyano-1-cyclopentyl-5-methoxy-1H-pyrrolo[2,3-b]pyridin-2-yl)-N-(1-methylcyclopropyl)pyridine-3-sulfonamide], the IC50 in data set [1] (Hepatitis C virus, 72 h) is less than 500 nM.

Molecule `CCc1cnc2c(c1)c(C#N)c(-c1ccc(S(=O)(=O)N[C@@H](C)C(F)(F)F)cn1)n2C1CCCC1` [Cpd 252, 6-(3-cyano-1-cyclopentyl-5-ethyl-1H-pyrrolo[2,3-b]pyridin-2-yl)-N-[(2S)-1,1,1-trifluoropropan-2-yl]pyridine-3-sulfonamide] returned an IC50 in data set [1] (Hepatitis C virus, 72 h) of less than 500 nM.

In data set [1] (Hepatitis C virus, 72 h), `CC(C)(NS(=O)(=O)c1ccc(-c2c(C#N)c3cc(C(F)F)cnc3n2C2CCC2)nc1)C(F)(F)F` [Cpd 456, 6-[3-cyano-1-cyclobutyl-5-(difluoromethyl)-1H-pyrrolo[2,3-b]pyridin-2-yl]-N-(1,1,1-trifluoro-2-methylpropan-2-yl)pyridine-3-sulfonamide] had an IC50 of less than 500 nM.

As to `CC(C)NS(=O)(=O)c1ccc(-c2c(C#N)c3cc(C4CC4)cnc3n2C2CCC2)cn1` [Cpd 135, 5-(3-cyano-1-cyclobutyl-5-cyclopropyl-1H-pyrrolo[2,3-b]pyridin-2-yl)-N-(propan-2-yl)pyridine-2-sulfonamide], the IC50 in data set [1] (Hepatitis C virus, 72 h) was less than 500 nM.

For “6-(3,6-dicyano-1-cyclobutyl-1H-pyrrolo[2,3-b]pyridin-2-yl)-N-[(2S)-1,1,1-trifluoropropan-2-yl]pyridine-3-sulfonamide [Cpd 241]”, the IC50 in data set [1] is less than 500 nM.

In data set [1] (Hepatitis C virus, 72 h), `Cc1cnc2c(c1)c(C(N)=O)c(-c1ccc(S(=O)(=O)N[C@@H](C)C(F)(F)F)cc1)n2C1CCC1` [Cpd 343, 1-cyclobutyl-5-methyl-2-(4-{[(2S)-1,1,1-trifluoropropan-2-yl]sulfamoyl}phenyl)-1H-pyrrolo[2,3-b]pyridine-3-carboxamide] yielded a half-maximal inhibitory concentration (IC50) of less than 500 nM.

As for `CCc1cnc2c(c1)c(C#N)c(-c1ncc(S(=O)(=O)NC(CF)CF)cn1)n2C1CCC1` [Cpd 192, 2-(3-cyano-1-cyclobutyl-5-ethyl-1H-pyrrolo[2,3-b]pyridin-2-yl)-N-(1,3-difluoropropan-2-yl)pyrimidine-5-sulfonamide], the IC50 in data set [1] (Hepatitis C virus, 72 h) is less than 500 nM.

Take `Cc1ccc2c(C#N)c(-c3ccc(S(=O)(=O)N[C@H](C)C(F)(F)F)cn3)n(C3CCC3)c2n1` [Cpd 93, 6-(3-cyano-1-cyclobutyl-6-methyl-1H-pyrrolo[2,3-b]pyridin-2-yl)-N-[(2R)-1,1,1-trifluoropropan-2-yl]pyridine-3-sulfonamide]: the IC50 in data set [1] (Hepatitis C virus, 72 h) is less than 500 nM.

`N#Cc1c(-c2ccc(S(=O)(=O)NC(CF)CF)cn2)n(C2CCC2)c2ncc(C3CC3)cc12` [Cpd 131, 6-(3-cyano-1-cyclobutyl-5-cyclopropyl-1H-pyrrolo[2,3-b]pyridin-2-yl)-N-(1,3-difluoropropan-2-yl)pyridine-3-sulfonamide] came in with an IC50 in data set [1] (Hepatitis C virus, 72 h) of less than 500 nM.

Take `CC(C)(C)NS(=O)(=O)c1ccc(-c2c(C(N)=O)c3cc(C4CC4)cnc3n2C2CCC2)cc1` [Cpd 375, 2-[4-(tert-butylsulfamoyl)phenyl]-1-cyclobutyl-5-cyclopropyl-1H-pyrrolo[2,3-b]pyridine-3-carboxamide]: in data set [1] (Hepatitis C virus, 72 h), the half-inhibitory concentration (IC50) was less than 500 nM.

As for `N#Cc1c(-c2ccc(S(=O)(=O)NC3CC3)cn2)n(C2CCC2)c2ncc(C(F)(F)F)cc12` [Cpd 245, 6-[3-cyano-1-cyclobutyl-5-(trifluoromethyl)-1H-pyrrolo[2,3-b]pyridin-2-yl]-N-cyclopropylpyridine-3-sulfonamide], the IC50 in data set [1] (Hepatitis C virus, 72 h) is less than 500 nM.

`CC(C)(NS(=O)(=O)c1ccc(-c2c(C(=O)O)c3cc(Cl)cnc3n2C2CCC2)nc1)C(F)(F)F` [Cpd 331, 5-chloro-1-cyclobutyl-2-{5-[(1,1,1-trifluoro-2-methylpropan-2-yl)sulfamoyl]pyridin-2-yl}-1H-pyrrolo[2,3-b]pyridine-3-carboxylic acid]: in data set [1] (Hepatitis C virus, 72 h), the IC50 lay in the range of 500 to 2000 nM.

`CN(Cc1ccccc1)c1cnc2c(c1)c(C#N)c(-c1ccc(NS(=O)(=O)C(C)(C)C)cc1)n2C1CCC1` [Cpd 352, N-(4-{5-[benzyl(methyl)amino]-3-cyano-1-cyclobutyl-1H-pyrrolo[2,3-b]pyridin-2-yl}phenyl)-2-methylpropane-2-sulfonamide]: the IC50 in data set [1] (Hepatitis C virus, 72 h) lay within 500 to 2000 nM.

Turning to `C[C@H](NS(=O)(=O)c1ccc(-c2c(C#N)c3cc(N(C)Cc4ccccc4)cnc3n2C2CCC2)nc1)C(F)(F)F` [Cpd 350, 6-{5-[benzyl(methyl)amino]-3-cyano-1-cyclobutyl-1H-pyrrolo[2,3-b]pyridin-2-yl}-N-[(2S)-1,1,1-trifluoropropan-2-yl]pyridine-3-sulfonamide], the IC50 in data set [1] (Hepatitis C virus, 72 h) was less than 500 nM.

Consider `N#Cc1c(-c2ccc(S(=O)(=O)NC3(C(F)(F)F)CC3)cc2)n(C2CCC2)c2ncc(Cl)cc12` [Cpd 281, 4-(5-chloro-3-cyano-1-cyclobutyl-1H-pyrrolo[2,3-b]pyridin-2-yl)-N-[1-(trifluoromethyl)cyclopropyl]benzenesulfonamide], for which the IC50 in data set [1] (Hepatitis C virus, 72 h) was less than 500 nM.

Take `COc1ccc2c(n1)c(C#N)c(-c1ccc(S(=O)(=O)N[C@@H](C)C(F)(F)F)cn1)n2C1CCC1` [Cpd 20, 6-(3-cyano-1-cyclobutyl-5-methoxy-1H-pyrrolo[3,2-b]pyridin-2-yl)-N-[(2S)-1,1,1-trifluoropropan-2-yl]pyridine-3-sulfonamide]: the IC50 in data set [1] (Hepatitis C virus, 72 h) is 500 to 2000 nM.

For `CC(C)(C)S(=O)(=O)Nc1ccc(-c2c(C#N)c3cc(C(F)(F)F)cnc3n2C2CC2)cc1` [Cpd 362, N-{4-[3-cyano-1-cyclopropyl-5-(trifluoromethyl)-1H-pyrrolo[2,3-b]pyridin-2-yl]phenyl}-2-methylpropane-2-sulfonamide], the IC50 in data set [1] (Hepatitis C virus, 72 h) was in the range of 500 to 2000 nM.

The molecule `C[C@@H](NS(=O)(=O)c1ccc(-c2c(C#N)c3ccc(C4CC4)nc3n2C2CCC2)cc1)C(F)(F)F` [Cpd 150, 4-(3-cyano-1-cyclobutyl-6-cyclopropyl-1H-pyrrolo[2,3-b]pyridin-2-yl)-N-[(2R)-1,1,1-trifluoropropan-2-yl]benzenesulfonamide] had a half-maximal inhibitory concentration (IC50) in data set [1] (Hepatitis C virus, 72 h) of less than 500 nM.

In turn, `N#Cc1c(-c2ccc(S(=O)(=O)NC3(C(F)(F)F)CC3)cc2)n(C2CCC2)c2ncc(C3CC3)cc12` [Cpd 123, 4-(3-cyano-1-cyclobutyl-5-cyclopropyl-1H-pyrrolo[2,3-b]pyridin-2-yl)-N-[1-(trifluoromethyl)cyclopropyl]benzenesulfonamide] displayed an IC50 in data set [1] (Hepatitis C virus, 72 h) of less than 500 nM.
